According to ChEMBL document CHEMBL5257119, “New insight into the bioactivity of substituted benzimidazole derivatives: Repurposing from anti-HIV activity to cell migration inhibition targeting hnRNP M” (Bioorg Med Chem, 2023):
Calls of active or inactive are those of the source. The calls are words filed in the database; no cut-off is given here.

Key:
[1] = test system: A549; assay: Downregulation of E-cadherin mRNA expression in human A549 cells at 20 uM measured for 1 day bt RT-qPCR analysis; assay type: functional, cell-based
[2] = test system: A549; assay: Antimigratory activity against TGFbeta-stimulated human A549 cells assessed as inhibition of cell migration at 10 uM measured for 1 day by cell scratch assay; assay type: functional, cell-based
[3] = test system: A549; assay: Antimigratory activity against TGFbeta-stimulated human A549 cells assessed as inhibition of cell migration at 20 uM measured for 1 day by cell scratch assay; assay type: functional, cell-based
[4] = test system: A549; assay: Downregulation of Vimentin mRNA expression in human A549 cells at 20 uM measured for 1 day bt RT-qPCR analysis; assay type: functional, cell-based
[5] = target: T1, Heterogeneous nuclear ribonucleoprotein M (Homo sapiens) (UniProt P52272); assay: Competitive inhibition of hnRNP M to in human A549 cells at 50 uM by immunoblotting analysis; assay type: cell-based
T1 sequence (whole entry): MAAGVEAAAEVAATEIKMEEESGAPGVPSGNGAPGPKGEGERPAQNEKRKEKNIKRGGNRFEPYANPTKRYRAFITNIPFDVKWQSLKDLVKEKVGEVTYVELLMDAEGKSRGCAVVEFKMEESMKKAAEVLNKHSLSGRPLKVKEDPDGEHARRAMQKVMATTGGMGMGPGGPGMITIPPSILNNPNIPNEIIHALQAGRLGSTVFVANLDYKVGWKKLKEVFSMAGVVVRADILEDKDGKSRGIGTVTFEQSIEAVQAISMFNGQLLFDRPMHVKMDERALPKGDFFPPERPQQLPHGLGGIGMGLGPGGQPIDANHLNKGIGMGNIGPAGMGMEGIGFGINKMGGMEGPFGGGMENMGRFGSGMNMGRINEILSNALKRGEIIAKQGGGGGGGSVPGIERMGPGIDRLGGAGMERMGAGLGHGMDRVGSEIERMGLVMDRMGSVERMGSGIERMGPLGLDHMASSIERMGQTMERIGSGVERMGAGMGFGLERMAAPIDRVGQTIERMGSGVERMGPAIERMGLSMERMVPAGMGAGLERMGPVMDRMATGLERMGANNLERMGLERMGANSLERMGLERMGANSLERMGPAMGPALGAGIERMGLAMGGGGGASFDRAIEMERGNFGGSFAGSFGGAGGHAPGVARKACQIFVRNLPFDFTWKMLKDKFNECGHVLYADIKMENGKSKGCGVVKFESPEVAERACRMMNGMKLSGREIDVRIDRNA

[6] = test system: A549; assay: Cytotoxicity against human A549 cells assessed as reduction in cell growth at 20 uM measured for 2 days by MTT assay; assay type: functional, cell-based; settings: time 2.0 day
[7] = test system: A549; assay: Downregulation of CD44 mRNA expression in human A549 cells at 20 uM measured for 1 day bt RT-qPCR analysis; assay type: functional, cell-based
[8] = test system: A549; assay: Antimigratory activity against TGFbeta-stimulated human A549 cells assessed as inhibition of cell migration measured for 1 day by cell scratch assay; assay type: functional, cell-based
[9] = test system: A549; assay: Antimigratory activity against TGFbeta-stimulated human A549 cells assessed as inhibition of cell migration at 1 uM measured for 1 day by cell scratch assay; assay type: functional, cell-based
[10] = test system: A549; assay: Downregulation of Zeb 1 mRNA expression in human A549 cells at 20 uM measured for 1 day bt RT-qPCR analysis; assay type: functional, cell-based

SMILES | Activity [2] | Activity [3] | Activity [6] | other results
Cc1noc(C)c1CSc1nc2ccccc2[nH]1 | Active | Active | inactive | Activity [1]: Active; Activity [4]: Active; inhibition call (active/inactive) [5]: Active; Activity [7]: Active
c1ccc(-n2c(SCc3ccccn3)nc3ccccc32)cc1 | – | – | inactive | –
c1ccc(CSc2nc3ccccc3n2-c2ccccc2)cc1 | – | – | inactive | –
Cc1noc(C)c1CSc1nc2ccccc2n1-c1ccccc1 | – | – | inactive | Activity [8]: inactive
Cc1noc(C)c1CSc1nc2ccccc2n1C | – | – | inactive | –
c1ccc2[nH]c(SCc3nc4ccccc4s3)nc2c1 | Active | Active | inactive | Activity [1]: Active; Activity [4]: Active; Activity [9]: Active; inhibition call (active/inactive) [5]: Active; Activity [7]: Active
N#Cc1ccc(CSc2nc3ccccc3n2-c2ccccc2)cc1 | – | Active | inactive | –
Cc1noc(C)c1CSc1nc2cc(Cl)c(Cl)cc2[nH]1 | Active | Active | inactive | Activity [1]: Active; Activity [10]: Active; Activity [4]: Active; inhibition call (active/inactive) [5]: Active; Activity [7]: Active
Cc1ccnc(SCc2nc3ccccc3s2)n1 | Active | – | inactive | inhibition [5]: Active
Cn1c(SCc2nc3ccccc3s2)nc2ccccc21 | – | – | inactive | –
COc1ccc(CSc2nc3ccccc3n2-c2ccccc2)cc1 | – | – | inactive | –
Cc1noc(C)c1CSc1nc2ccccc2s1 | – | – | inactive | –
c1ccc(-n2c(SCc3nc4ccccc4s3)nc3ccccc32)cc1 | – | – | inactive | –
